Experimental data as given in PubChem BioAssay AID256 (DTP/NCI, 2004).
“And” between values parts separate entries of the source, which are not always exact repeats. Identical values can stand only once. Inconclusive results and toxic doses are left out. The calls were made as follows: active = survival T/C of 150% or more; inactive = T/C below 125% in these data.

Tested on: CD2F1 mice, L1210 leukemia ip, survival T/C
Assay: NCI In Vivo Anticancer Drug Screen. Data for tumor model L1210 Leukemia (intraperitoneal) in CD2F1 (CDF1) mice
Details: higher = longer survival
Procedure, shortened: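 Each value reflects a quotient of treated over vehicle control outcomes in mice with a transplanted tumor.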

[1] = endpoint: mean survival time, dose: 50.0 mg/kg/injection, schedule: Q01DX009 (ip), vehicle: saline
[2] = endpoint: mean survival time, dose: 100.0 mg/kg/injection, schedule: Q01DX009 (ip), vehicle: saline
[3] = endpoint: mean survival time, dose: 200.0 mg/kg/injection, schedule: Q01DX009 (ip), vehicle: saline
[4] = endpoint: mean survival time, dose: 400.0 mg/kg/injection, schedule: Q01DX009 (ip), vehicle: saline
[5] = endpoint: mean survival time, dose: 50.0 mg/kg/injection, schedule: Q01DX009 (ip), vehicle: saline with Tween-80
[6] = endpoint: mean survival time, dose: 100.0 mg/kg/injection, schedule: Q01DX009 (ip), vehicle: saline with Tween-80
[7] = endpoint: mean survival time, dose: 200.0 mg/kg/injection, schedule: Q01DX009 (ip), vehicle: saline with Tween-80
[8] = endpoint: mean survival time, dose: 100.0 mg/kg/injection, schedule: Q04DX003 (ip), vehicle: saline with Tween-80
[9] = endpoint: mean survival time, dose: 200.0 mg/kg/injection, schedule: Q04DX003 (ip), vehicle: saline with Tween-80
[10] = endpoint: mean survival time, dose: 100.0 mg/kg/injection, schedule: Q01DX001 (ip), vehicle: saline
[11] = endpoint: mean survival time, dose: 400.0 mg/kg/injection, schedule: Q04DX003 (ip), vehicle: saline with Tween-80
[12] = endpoint: mean survival time, dose: 400.0 mg/kg/injection, schedule: Q01DX009 (ip), vehicle: saline with Tween-80

Measured: T/C

O=C(O)C(CSC(c1ccccc1)(c1ccccc1)c1ccccc1)NC(c1ccccc1)c1ccccc1 (stereo not drawn)
inactive: [1] 101 % of control | [2] 98 % of control | [3] 101 % of control | [4] 101 % of control

Cc1ccc2c(c1)CCCN2C(=O)c1ccccc1
inactive: endpoint: mean survival time, dose: 100.0 mg/kg/injection, schedule: Q04DX003 (ip), vehicle: other 89 % of control | endpoint: mean survival time, dose: 200.0 mg/kg/injection, schedule: Q04DX003 (ip), vehicle: other 92 % of control | endpoint: mean survival time, dose: 400.0 mg/kg/injection, schedule: Q04DX003 (ip), vehicle: other 94 % of control

CCCCCC(O)CCCC (stereo not drawn)
inactive: [5] 91 % of control | [6] 100 % of control | [7] 106 % of control

O=C(COc1ccc(Cl)c(Cl)c1)NCc1cccc(NC(=O)c2ccc(S(=O)(=O)F)cc2)c1
inactive: endpoint: mean survival time, dose: 100.0 mg/kg/injection, schedule: Q01DX001 (ip), vehicle: saline with Tween-80 87 % of control | endpoint: mean survival time, dose: 200.0 mg/kg/injection, schedule: Q01DX001 (ip), vehicle: saline with Tween-80 86 % of control | endpoint: mean survival time, dose: 400.0 mg/kg/injection, schedule: Q01DX001 (ip), vehicle: saline with Tween-80 89 % of control

O=C(O)C(Cl)(c1ccccc1)C(Cl)c1ccccc1 (stereo not drawn)
inactive: [5] 94 % of control | [6] 100 % of control | [8] 101 % of control | [7] 98 % of control | [9] 101 % of control

COc1cc(C(=O)C=[N+]=[N-])cc(OC)c1OC(C)=O
inactive: [10] 91 % of control | endpoint: mean survival time, dose: 200.0 mg/kg/injection, schedule: Q01DX001 (ip), vehicle: saline 96 % of control | endpoint: mean survival time, dose: 400.0 mg/kg/injection, schedule: Q01DX001 (ip), vehicle: saline 110 % of control

O=[N+]([O-])c1cc([N+](=O)[O-])c2nc3ccccn3c2c1
inactive: [8] 101 % of control | [9] 101 % of control | [11] 101 % of control

COc1ccccc1/C=C/c1ccnc2ccccc12
inactive: [2] 98 % of control | [3] 95 % of control | [4] 96 % of control

CCOP(=[Se])(OCC)[Se][Se][Se]P(=[Se])(OCC)OCC
inactive: [10] 108 % of control

C=C(C)C1CCC2(C(=O)OC)CCC3(C)C(CCC4C5(C)CCC(=O)C(C)(C)C5CCC43C)C12 (stereo not drawn)
inactive: endpoint: mean survival time, dose: 100.0 mg/kg/injection, schedule: Q01DX001 (ip), vehicle: Klucel (hydroxypropylcellulose) (HPC) 96 % of control | endpoint: mean survival time, dose: 200.0 mg/kg/injection, schedule: Q01DX001 (ip), vehicle: Klucel (hydroxypropylcellulose) (HPC) 91 % of control | endpoint: mean survival time, dose: 400.0 mg/kg/injection, schedule: Q01DX001 (ip), vehicle: Klucel (hydroxypropylcellulose) (HPC) 94 % of control

Brc1sccc1-c1cccc2ccccc12
inactive: endpoint: mean survival time, dose: 25.0 mg/kg/injection, schedule: Q04DX003 (ip), vehicle: saline with Tween-80 104 % of control | endpoint: mean survival time, dose: 50.0 mg/kg/injection, schedule: Q04DX003 (ip), vehicle: saline with Tween-80 96 % of control | [8] 104 % of control

CN1CCC(COC(=O)C(O)(c2ccccc2)c2ccccc2)C1 (stereo not drawn)
inactive: endpoint: mean survival time, dose: 25.0 mg/kg/injection, schedule: Q01DX009 (ip), vehicle: saline with Tween-80 100 % of control | [5] 100 % of control | [6] 94 % of control

FC(F)(F)/C([S-])=C(/[S-])C(F)(F)F.FC(F)(F)/C([S-])=C(/[S-])C(F)(F)F.FC(F)(F)/C([S-])=C(/[S-])C(F)(F)F.FC(F)(F)/C([S-])=C(/[S-])C(F)(F)F.[Co+3].[Co+3]
inactive: endpoint: mean survival time, dose: 12.5 mg/kg/injection, schedule: Q04DX003 (ip), vehicle: other 95 % of control | endpoint: mean survival time, dose: 25.0 mg/kg/injection, schedule: Q04DX003 (ip), vehicle: other 95 % of control | endpoint: mean survival time, dose: 50.0 mg/kg/injection, schedule: Q04DX003 (ip), vehicle: other 98 % of control

O=C1c2ccccc2C(C2c3ccccc3C(=O)c3ccccc32)c2ccccc21
inactive: [8] 110 % of control | [9] 96 % of control | [11] 100 % of control

Cc1nc(-c2ccccc2)[nH]c(=O)c1CC(C)O (stereo not drawn)
inactive: [6] 91 % of control | [8] 94 % of control | [7] 96 % of control | [9] 95 % of control | [11] 92 % of control

CC[N+](C)(CC)CCCOC(=O)c1ccccc1Oc1ccc(C)cc1
inactive: [1] 102 % of control

NP(=O)(OCCC(OCc1ccccc1)OCc1ccccc1)N(CCCl)CCCl (stereo not drawn)
inactive: endpoint: mean survival time, dose: 25.0 mg/kg/injection, schedule: Q01DX001 (ip), vehicle: DMSO 100 % of control | endpoint: mean survival time, dose: 50.0 mg/kg/injection, schedule: Q01DX001 (ip), vehicle: DMSO 100 % of control | endpoint: mean survival time, dose: 100.0 mg/kg/injection, schedule: Q01DX001 (ip), vehicle: DMSO 91 % of control | endpoint: mean survival time, dose: 200.0 mg/kg/injection, schedule: Q01DX001 (ip), vehicle: DMSO 97 % of control | endpoint: mean survival time, dose: 400.0 mg/kg/injection, schedule: Q01DX001 (ip), vehicle: DMSO 103 % of control

Oc1ccccc1C=Nc1ccc(N=Cc2ccccc2O)cc1
inactive: [8] 88 % of control | [9] 91 % of control | [11] 100 % of control

CC/C(=C(/CC)c1ccc(O)cc1)c1ccc(O)cc1
inactive: endpoint: median survival time, dose: 12.5 mg/kg/injection, schedule: Q01DX009 (sc), vehicle: steriod suspending solution 114 % of control and 105 % of control | endpoint: median survival time, dose: 25.0 mg/kg/injection, schedule: Q01DX009 (sc), vehicle: steriod suspending solution 114 % of control and 100 % of control | endpoint: median survival time, dose: 50.0 mg/kg/injection, schedule: Q01DX009 (sc), vehicle: steriod suspending solution 114 % of control and 105 % of control | endpoint: median survival time, dose: 100.0 mg/kg/injection, schedule: Q01DX009 (sc), vehicle: steriod suspending solution 100 % of control

CCC(=O)c1ccc(Cc2ccc(C(=O)CC)cc2)cc1
inactive: [1] 87 % of control | [2] 92 % of control | [3] 98 % of control | [4] 93 % of control

CCOC(=O)Nc1cccc(Cl)c1Cl
inactive: [6] 97 % of control | [7] 102 % of control | [12] 105 % of control

O=C1C(=O)c2ccccc2C(O)=C1CC1=C(O)c2ccccc2C(=O)C1=O
inactive: [8] 103 % of control | [9] 101 % of control | [11] 106 % of control

CCCCn1cnc2c(SSc3ncnc4c3ncn4CCCC)ncnc21
inactive: [8] 116 % of control and 106 % of control | [9] 113 % of control | endpoint: mean survival time, dose: 264.0 mg/kg/injection, schedule: Q04DX003 (ip), vehicle: saline with Tween-80 97 % of control | endpoint: mean survival time, dose: 300.0 mg/kg/injection, schedule: Q04DX003 (ip), vehicle: saline with Tween-80 120 % of control | [11] 122 % of control and 111 % of control | endpoint: mean survival time, dose: 600.0 mg/kg/injection, schedule: Q04DX003 (ip), vehicle: saline with Tween-80 97 % of control

O=[As](O)(CC(O)COc1ccc(Cl)cc1Cl)c1cccc(Cl)c1 (stereo not drawn)
inactive: endpoint: mean survival time, dose: 6.25 mg/kg/injection, schedule: Q04DX003 (ip), vehicle: saline with Tween-80 98 % of control | endpoint: mean survival time, dose: 12.5 mg/kg/injection, schedule: Q04DX003 (ip), vehicle: saline with Tween-80 110 % of control

NCCCCCBr
inactive: [1] 98 % of control | [2] 90 % of control | [3] 98 % of control

CN(C)N=Nc1ccc(C(=O)N/N=C/c2ccccc2[N+](=O)[O-])cc1
inactive: endpoint: mean survival time, dose: 100.0 mg/kg/injection, schedule: Q04DX003 (ip), vehicle: saline 104 % of control | endpoint: mean survival time, dose: 200.0 mg/kg/injection, schedule: Q04DX003 (ip), vehicle: saline 101 % of control | endpoint: mean survival time, dose: 400.0 mg/kg/injection, schedule: Q04DX003 (ip), vehicle: saline 115 % of control

N#CC(/C=C/c1ccccc1)Nc1ccccc1N (stereo not drawn)
inactive: [6] 98 % of control | [7] 95 % of control | [12] 93 % of control
